Reference: ChEMBL document CHEMBL4385611, “Difluoromethylene at the γ-Lactam α-Position Improves 11-Deoxy-8-aza-PGE1 Series EP4 Receptor Binding and Activity: 11-Deoxy-10,10-difluoro-8-aza-PGE1 Analog (KMN-159) as a Potent EP4 Agonist” (J Med Chem, 2019)

Legend:
[1] = target: T1, Prostaglandin E2 receptor EP3 subtype (Homo sapiens, UniProt P43115); experiment: Displacement of [3H]PGE2 from human recombinant EP3 receptor expressed in HEK293 cell membranes after 120 mins by liquid scintillation counting method
T1 sequence (P43115 whole entry): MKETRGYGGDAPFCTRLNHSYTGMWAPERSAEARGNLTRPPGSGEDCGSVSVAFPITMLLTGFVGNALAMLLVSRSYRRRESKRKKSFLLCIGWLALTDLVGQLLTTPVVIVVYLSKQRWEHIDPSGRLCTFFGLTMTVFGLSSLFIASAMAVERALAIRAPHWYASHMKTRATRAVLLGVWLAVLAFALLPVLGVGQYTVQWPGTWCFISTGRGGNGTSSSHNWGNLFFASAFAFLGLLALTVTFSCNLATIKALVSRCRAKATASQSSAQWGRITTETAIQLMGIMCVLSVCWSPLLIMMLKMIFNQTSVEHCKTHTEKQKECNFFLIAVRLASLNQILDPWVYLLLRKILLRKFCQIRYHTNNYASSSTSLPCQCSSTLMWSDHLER

[2] = target: T2, Prostaglandin E2 receptor EP4 subtype (Homo sapiens, UniProt P35408); experiment: Agonist activity at human EP4 receptor expressed in HEK293T/17 cells assessed as increase in intracellular cAMP level incubated for 30 mins by ELISA; format: functional, cell-based
[3] = target: T3, Prostaglandin E2 receptor EP2 subtype (Homo sapiens, UniProt P43116); experiment: Agonist activity at human EP2 receptor expressed in HEK293T/17 cells assessed as increase in intracellular cAMP level incubated for 30 mins by ELISA; format: functional, cell-based
[4] = target: T3, Prostaglandin E2 receptor EP2 subtype; experiment: Displacement of [3H]PGE2 from human recombinant EP2 receptor expressed in HEK293 cell membranes after 120 mins by liquid scintillation counting method
[5] = target: T3, Prostaglandin E2 receptor EP2 subtype; experiment: Agonist activity at human EP2 receptor expressed in HEK293T/17 cells assessed as increase in intracellular cAMP level at 10 uM incubated for 30 mins by ELISA relative to control; format: functional, cell-based
[6] = target: T2, Prostaglandin E2 receptor EP4 subtype; experiment: Agonist activity at human EP4 receptor expressed in HEK293T/17 cells assessed as increase in GalphaS-mediated CREB activation measured after 6 to 24 hrs by SEAP reporter gene-based chemiluminescence assay; format: functional, cell-based
[7] = target: T3, Prostaglandin E2 receptor EP2 subtype; experiment: Agonist activity at human EP2 receptor expressed in HEK293T/17 cells assessed as increase in GalphaS-mediated CREB activation measured after 6 to 24 hrs by SEAP reporter gene-based chemiluminescence assay; format: functional, cell-based
[8] = target: T2, Prostaglandin E2 receptor EP4 subtype; experiment: Displacement of [3H]PGE2 from human recombinant EP4 receptor expressed in HEK293 cell membranes after 120 mins by liquid scintillation counting method
[9] = target: T3, Prostaglandin E2 receptor EP2 subtype; experiment: Agonist activity at human EP2 receptor expressed in HEK293T/17 cells assessed as increase in GalphaS-mediated CREB activation at 10 uM measured after 6 to 24 hrs by SEAP reporter gene-based chemiluminescence assay relative to control; format: functional, cell-based

T3 sequence (P43116 whole entry): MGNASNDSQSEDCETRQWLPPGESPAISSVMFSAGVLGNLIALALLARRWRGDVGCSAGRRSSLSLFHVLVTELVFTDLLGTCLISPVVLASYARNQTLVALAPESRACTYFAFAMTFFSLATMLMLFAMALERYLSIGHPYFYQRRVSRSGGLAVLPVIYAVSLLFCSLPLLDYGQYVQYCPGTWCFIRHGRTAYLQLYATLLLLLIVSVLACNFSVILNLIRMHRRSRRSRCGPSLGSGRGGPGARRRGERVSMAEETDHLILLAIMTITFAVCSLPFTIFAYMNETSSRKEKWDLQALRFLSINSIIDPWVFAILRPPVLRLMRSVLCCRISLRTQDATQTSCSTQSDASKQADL
T2 sequence (P35408 whole entry): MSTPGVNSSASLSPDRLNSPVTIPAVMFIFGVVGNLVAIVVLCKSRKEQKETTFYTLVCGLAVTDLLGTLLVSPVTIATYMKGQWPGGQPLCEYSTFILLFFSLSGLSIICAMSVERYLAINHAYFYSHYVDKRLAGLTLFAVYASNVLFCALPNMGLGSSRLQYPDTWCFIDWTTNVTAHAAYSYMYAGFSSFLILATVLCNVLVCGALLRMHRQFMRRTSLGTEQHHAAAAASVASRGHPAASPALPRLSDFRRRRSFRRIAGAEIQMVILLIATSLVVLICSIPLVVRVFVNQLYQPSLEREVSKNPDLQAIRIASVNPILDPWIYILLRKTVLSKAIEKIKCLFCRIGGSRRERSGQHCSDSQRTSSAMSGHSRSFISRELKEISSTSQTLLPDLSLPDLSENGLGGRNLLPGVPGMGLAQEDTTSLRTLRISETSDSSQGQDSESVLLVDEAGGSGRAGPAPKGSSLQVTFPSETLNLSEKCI

EC50 [2] | Compound | Ki [1] | EC50 [3] | Ki [4] | Activity [5] | EC50 [6] | EC50 [7] | Ki [8] | Activity [9]
0.348 nM | CCCCC[C@H](O)/C=C/[C@H]1CC(F)(F)C(=O)N1CCCCCCC(=O)O | 350 nM | > 10000 nM | 329 nM | < 50% | 0.021 nM | 2270 nM | 0.2 nM | 
 | CCCCC[C@H](O)/C=C/[C@H]1CCC(=O)N1CCCCCCC(=O)O | 1170 nM | > 10000 nM | 1460 nM | < 50% | 0.065 nM | > 10000 nM | 1.61 nM | < 50%
 | COCc1cccc(C[C@H](O)/C=C/[C@H]2[C@H](O)CC(=O)[C@@H]2CCSCCCC(=O)O)c1 |  | 10000 nM |  | < 50% | 0.01 nM | 610 nM | 0.396 nM | 
